Results taken from US6610689B2, “HIV protease inhibitors based on amino acid derivatives” (priority 2001, dated 2003).
Like-named read-outs stand apart in the source and are kept apart here.

Molecular target: T1, HIV protease (Human immunodeficiency virus type 1 group M subtype B, UniProt P04585)
T1 construct: A third viral enzyme known as protease then cleaves the polyproteins
Assay: Enzymatic Assay for Determining the Inhibition Constant (Ki) of Synthetic Compounds Targeting the HIV Protease (fluorometric FRET assay)
Format: biochemical
Source text: Enzymatic Assay for Determining the Inhibition Constant (Ki) of Synthetic Compounds Targeting the HIV Protease
This is a fluorometric assay based on the cleavage by protease of a substrate carrying a donor group (EDANS) and an acceptor group (DABCYL) on each side of the cleavage site, interacting together through fluorescence resonance energy transfer (FRET) as described by Matayoshi et al. (Science 247:[…], 1990).
After calculation of Vo and Vi, the inhibition constant (Ki) of the compound is determined using the equation of Henderson: [formula]
where Vo=the enzyme's initial velocity
Vi=the enzyme velocity in the presence of the inhibitory compound,
[I]=inhlibitor concentration, [S]=substrate concentration,
Km=Michaelis-Menten constant and Kiapp=apparent Ki
Graphs are traced and the Ki determined using GraphPad Prism software v. 3.0.

[1] = Anti-protease activity of Ne-amino acid substituted L-lysine derivatives and analogs of formula I, read-out: Ki

Cc1ccc(S(=O)(=O)N(CC(C)C)[C@@H](CCCCNC(=O)[C@H](CC(N)=O)NC(=O)C(C)(C)C)C(=O)O)cc1 [Example 62, Nα-Isobutyl-Nα-(4-methylbenzenesulfonyl)-Nε-(N′α-pivaloyl-L-asparagyl)-L-lysine] gave a Ki of 212 nM.

With Cc1ccc(S(=O)(=O)N(CC(C)C)[C@@H](CCCCNC(=O)[C@H](CC(N)=O)NC(=O)c2ccccc2)C(=O)O)cc1 [Example 63, Nα-Isobutyl-Nα-(4-methylbenzenesulfonyl)-Nε-(N′α-benzoyl-L-asparagyl)-L-lysine] the Ki was 193 nM.

Cc1ccc(S(=O)(=O)N(CC(C)C)[C@@H](CCCCNC(=O)[C@H](Cc2ccccc2)NS(=O)(=O)c2cccs2)C(=O)NN)cc1 [Example 64, Nα-Isobutyl-Nα-(4-methylbenzenesulfonyl)-Nε-[N′α-(2-thiophenesulfonyl)-L-phenylalanyl]-L-lysine Hydrazide] was tested, and the Ki [1] was over 300 nM.

Cc1ccc(S(=O)(=O)N(CC(C)C)[C@@H](CCCCNC(=O)[C@@H]2Cc3ccccc3CN2S(=O)(=O)c2ccc(C)cc2)C(=O)O)cc1 [Example 65] gave a Ki of 24 nM.

For Cc1ccc(S(=O)(=O)N[C@H](Cc2ccccc2)C(=O)NCCCC[C@H](C(=O)O)N(CC(C)C)S(=O)(=O)c2ccc(C)cc2)cc1 [Example 66, Nα-Isobutyl-Nα-(4-methylbenzenesulfonyl)-Nε-[N′α-(4-methylbenzenesulfonyl)-D-phenylalanyl]-D-lysine], the Ki was over 300 nM.

Work on Cc1ccc(S(=O)(=O)N[C@@H](Cc2ccccc2)C(=O)NCCCC[C@H](C(=O)O)N(CC(C)C)S(=O)(=O)c2ccc(C)cc2)cc1 [Example 67, Nα-Isobutyl-Nα-(4-methylbenzenesulfonyl)-Nε-[N′α-(4-methylbenzenesulfonyl)-L-phenylalanyl]-D-lysine] yielded a Ki of over 300 nM.

With COC(=O)[C@H](CCCCNC(=O)[C@H](Cc1ccccc1)NS(=O)(=O)c1ccc(C)cc1)N(CC(C)C)S(=O)(=O)c1ccc(C)cc1 [Example 68, Nα-Isobutyl-Nα-(4-methylbenzenesulfonyl)-Nε-[N′α-(4-methylbenzenesulfonyl)-L-phenylalanyl]-L-lysine Methyl Ester] the Ki was over 300 nM.

Work on COC(=O)[C@H](CCCCNC(=O)[C@H](Cc1c[nH]c2ccccc12)NS(=O)(=O)c1ccc(C)cc1)N(CC(C)C)S(=O)(=O)c1ccc(C)cc1 [Example 69, Nα-Isobutyl-Nα-(4-methylbenzenesulfonyl)-Nε-[N′α-(4-methylbenzenesulfonyl)-L-tryptophanyl]-L-lysine Methyl Ester] yielded a Ki of over 300 nM.

COC(=O)[C@H](CCCCNC(=O)[C@H](Cc1ccccc1)NC(=O)c1ccccc1)N(CC(C)C)S(=O)(=O)c1ccc(C)cc1 [Example 70, Nα-Isobutyl-Nα-(4-methylbenzenesulfonyl)-Nε-(N′α-benzoyl-L-phenylalanyl)-L-lysine Methyl Ester] showed a Ki of over 300 nM.

In the case of COC(=O)[C@H](CCCCNC(=S)[C@H](Cc1ccccc1)NS(=O)(=O)c1ccc(C)cc1)N(CC(C)C)S(=O)(=O)c1ccc(C)cc1 [Example 71, Nα-Isobutyl-Nα-(4-methylbenzenesulfonyl)-Nε-[N′α-(4-methylbenzenesulfonyl)-L-thiophenylalanyl]-L-lysine Methyl Ester], the Ki is reported as over 300 nM.

For Cc1ccc(S(=O)(=O)N[C@@H](Cc2ccccc2)C(=S)NCCCC[C@@H](C(=O)O)N(CC(C)C)S(=O)(=O)c2ccc(C)cc2)cc1 [Example 72, Nα-Isobutyl-Nα-(4-methylbenzenesulfonyl)-Nε-[N′α-(4-methylbenzenesulfonyl)-L-thiophenylalanyl]-L-lysine], the Ki was 33 nM.

For Cc1ccc(S(=O)(=O)N[C@@H](Cc2c[nH]c3ccccc23)C(=S)NCCCC[C@@H](C(=O)O)N(CC(C)C)S(=O)(=O)c2ccc(C)cc2)cc1 [Example 73, Nα-Isobutyl-Nα-(4-methylbenzenesulfonyl)-Nε-[N′α-(4-methylbenzenesulfonyl)-L-thiotryptophanyl]-L-lysine], the Ki was 14 nM.

In the case of Cc1ccc(S(=O)(=O)N(CC(C)C)[C@@H](CCCCNC(=S)[C@H](Cc2c[nH]c3ccccc23)NS(=O)(=O)c2ccccc2)C(=O)O)cc1 [Example 74, Nα-Isobutyl-Nα-(4-methylbenzenesulfonyl)-Nε-(N′α-benzenesulfonyl-L-thiotryptophanyl)-L-lysine], the Ki is reported as 4.8 nM.

COC(=O)[C@H](CCCCNC(=S)[C@H](Cc1c[nH]c2ccccc12)NS(=O)(=O)c1ccc(C)cc1)N(CC(C)C)S(=O)(=O)c1ccc(C)cc1 [Example 75, Nα-Isobutyl-Nα-(4-methylbenzenesulfonyl)-Nε-[N′α-(4-methylbenzenesulfonyl)-L-thiotryptophanyl]-L-lysine Methyl Ester] gave a Ki of over 300 nM.

COC(=O)[C@H](CCCCNC(=S)[C@H](Cc1ccccc1)NC(=S)c1ccccc1)N(CC(C)C)S(=O)(=O)c1ccc(C)cc1 [Example 76, Nα-Isobutyl-Nα-(4-methylbenzenesulfonyl)-Nε-(N′α-thiobenzoyl-L-thiophenylalanyl)-L-lysine Methyl Ester] showed a Ki of over 300 nM.

Work on Cc1ccc(S(=O)(=O)N(CC(C)C)[C@@H](CCCCNC(=S)[C@H](Cc2ccccc2)NC(=S)c2ccccc2)C(=O)O)cc1 [Example 77, Nα-Isobutyl-Nα-(4-methylbenzenesulfonyl)-Nε-(N′α-thiobenzoyl-L-thiophenylalanyl)-L-lysine] yielded a Ki of 212 nM.

Cc1ccc(S(=O)(=O)N(CC(C)C)[C@@H](CCCCNC(=O)[C@H](Cc2ccccc2)NC(=O)OC(C)(C)C)C(=O)O)cc1 [Example 78, Nα-Isobutyl-Nα-(4-methylbenzenesulfonyl)-Nε-(N′α-tert-butoxycarbonyl-L-phenylalanyl)-L-lysine] gave a Ki of 2.5 nM.

Cc1ccc(S(=O)(=O)N(CC(C)C)[C@@H](CCCCNC(=O)[C@@H](N)Cc2ccccc2)C(=O)O)cc1 [Example 79, Nα-Isobutyl-Nα-(4-methylbenzenesulfonyl)-Nε-(L-phenylalanyl)-L-lysine] gave a Ki of 1.5 nM.

Cc1ccc(S(=O)(=O)N(CC(C)C)C(CCCCNC(=O)C(Cc2ccccc2)NC(=O)OC2CCOC2)C(=O)O)cc1 [Example 80, Nα-Isobutyl-Nα-(4-methylbenzenesulfonyl)-Nε-[N′α-(carbotetrahydro-3-furanyloxy)-L-phenylalanyl]-L-lysine] gave a Ki of 1.4 nM.

For Cc1ccc(S(=O)(=O)N(CC(C)C)[C@@H](CCCCNC(=O)[C@H](Cc2ccccc2)N(C)C(=O)OC(C)(C)C)C(=O)O)cc1 [Example 81, Nα-Isobutyl-Nα-(4-methylbenzenesulfonyl)-Nε-(N′α-tert-butoxycarbonyl-N′α-methyl-L-phenylalanyl)-L-lysine], the Ki was 3.8 nM.

CSCC[C@H](NC(=O)OC(C)(C)C)C(=O)NCCCC[C@@H](C(=O)O)N(CC(C)C)S(=O)(=O)c1ccc(C)cc1 [Example 82, Nα-Isobutyl-Nα-(4-methylbenzenesulfonyl)-Nε-(N′α-tert-butoxycarbonyl-L-methionyl)-L-lysine] was tested, and the Ki was 65 nM.

Cc1ccc(CSC[C@H](NC(=O)OC(C)(C)C)C(=O)NCCCC[C@@H](C(=O)O)N(CC(C)C)S(=O)(=O)c2ccc(C)cc2)cc1 [Example 83, Nα-Isobutyl-Nα-(4-methylbenzenesulfonyl)-Nε-[N′α-tert-butoxycarbonyl-S-(4-methylbenzyl)-L-cysteinyl]-L-lysine] gave a Ki [1] of 62 nM.

Cc1ccc(S(=O)(=O)N(CC(C)C)[C@@H](CCCCNC(=O)[C@@H](NC(=O)OC(C)(C)C)[C@@H](C)OCc2ccccc2)C(=O)O)cc1 [Example 84, Nα-Isobutyl-Nα-(4-methylbenzenesulfonyl)-Nε-(N′α-tert-butoxyearbonyl-O-benzyl-L-threonyl)-L-lysine] showed a Ki of 163 nM.

Compound Cc1ccc(S(=O)(=O)N(CC(C)C)[C@@H](CCCCNC(=O)[C@H](Cc2cn(Cc3ccccc3)cn2)NC(=O)OC(C)(C)C)C(=O)O)cc1 [Example 85, Nα-Isobutyl-Nα-(4-methylbenzenesulfonyl)-Nε-(N′α-tert-butoxycarbonyl-Nτ-benzyl-L-histidinyl)-L-lysine] has a Ki of 124 nM.

Cc1ccc(S(=O)(=O)N(CC(C)C)[C@@H](CCCCNC(=O)[C@H](Cc2ccc(OCc3ccccc3)cc2)NC(=O)OC(C)(C)C)C(=O)O)cc1 [Example 87, Nα-Isobutyl-Nα-(4-methylbenzenesulfonyl)-Nε-(N′α-tert-butoxycarbonyl-O-benzyl-L-tyrosyl)-L-lysine] showed a Ki of 49 nM.

With CN[C@@H](Cc1ccccc1)C(=O)NCCCC[C@@H](C(=O)O)N(CC(C)C)S(=O)(=O)c1ccc(C)cc1 [Example 88, Nα-Isobutyl-Nα-(4-methylbenzenesulfonyl)-Nε-(N′α-methyl-L-phenylalanyl)-L-lysine] the Ki was 2.1 nM.

CSCC[C@H](N)C(=O)NCCCC[C@@H](C(=O)O)N(CC(C)C)S(=O)(=O)c1ccc(C)cc1 [Example 89, Nα-Isobutyl-Nα-(4-methylbenzenesulfonyl)-Nε-(L-methionyl)-L-lysine] was tested, and the Ki was 33 nM.

Work on Cc1ccc(CSC[C@H](N)C(=O)NCCCC[C@@H](C(=O)O)N(CC(C)C)S(=O)(=O)c2ccc(C)cc2)cc1 [Example 90, Nα-Isobutyl-Nα-(4-methylbenzenesulfonyl)-Nε-[S-(4-methylbenzyl)-L-cysteinyl]-L-lysine] yielded a Ki of 29 nM.

Cc1ccc(S(=O)(=O)N(CC(C)C)[C@@H](CCCCNC(=O)[C@@H](N)[C@@H](C)OCc2ccccc2)C(=O)O)cc1 [Example 91, Nα-Isobutyl-Nα-(4-methylbenzenesulfonyl)-Nε-(O-benzyl-L-threonyl)-L-lysine] was tested, and the Ki was 10 nM.

Cc1ccc(S(=O)(=O)N(CC(C)C)[C@@H](CCCCNC(=O)[C@@H](N)Cc2cn(Cc3ccccc3)cn2)C(=O)O)cc1 [Example 92, Nα-Isobutyl-Nα-(4-methylbenzenesulfonyl)-Nε-(Nτ-benzyl-L-histidinyl)-L-lysine] was tested, and the Ki was over 300 nM.

Compound Cc1ccc(S(=O)(=O)N(CC(C)C)[C@@H](CCCCNC(=O)[C@@H](N)Cc2c[nH]c3ccccc23)C(=O)O)cc1 [Example 93, Nα-Isobutyl-Nα-(4-methylbenzenesulfonyl)-Nε-(L-tryptophanyl)-L-lysine] has a Ki of 2.1 nM.
